According to BindingDB's records for doi:10.1016/j.bmcl.2009.02.015 (Pfizer, 2009):

Target: Cyclin-dependent kinase 2 (Homo sapiens) (UniProt P24941)
Experiment: Inhibition of CDK2

| SMILES | IC50 |
| --- | --- |
| COc1ccc2sc3c(c2c1)NCCNC3=O [3-Methoxy-5,6,7,8-tetrahydro-10-thia-5,8-diaza-benzo[a]azulen-9-one] | 0.16 µM |
| COc1ccc2sc3c(c2c1)CCCNC3=O [3-Methoxy-5,6,7,8-tetrahydro-10-thia-8-aza-benzo[a]azulen-9-one] | 0.36 µM |
| COC(=O)COc1ccc2sc3c(c2c1)NC[C@@H](C)NC3=O [((R)-7-Methyl-9-oxo-6,7,8,9-tetrahydro-5H-10-thia-5,8-diaza-benzo[a]azulen-3-yloxy)-acetic acid methyl ester] | 3.09 µM |
| C[C@@H]1CNc2c(sc3ccc(OCC4CC4)cc23)C(=O)N1 [(R)-3-Cyclopropylmethoxy-7-methyl-5,6,7,8-tetrahydro-10-thia-5,8-diaza-benzo[a]azulen-9-one] | 0.052 µM |
| C[C@@H]1CNc2c(sc3ccc(O)cc23)C(=O)N1 [(R)-3-Hydroxy-7-methyl-5,6,7,8-tetrahydro-10-thia-5,8-diaza-benzo[a]azulen-9-one] | 0.026 µM |
| CC(C)COc1ccc2sc3c(c2c1)NC[C@@H](C)NC3=O [(R)-3-Isobutoxy-7-methyl-5,6,7,8-tetrahydro-10-thia-5,8-diaza-benzo[a]azulen-9-one] | 0.011 µM |
| CCCNC[C@@H]1CNc2c(sc3ccc(OC)cc23)C(=O)N1 [(R)-3-Methoxy-7-propylaminomethyl-5,6,7,8-tetrahydro-10-thia-5,8-diaza-benzo[a]azulen-9-one] | 2.6 µM |
| COc1ccc2sc3c(c2c1)NC[C@@H](CNCc1ccccc1)NC3=O [(R)-7-(Benzylamino-methyl)-3-methoxy-5,6,7,8-tetrahydro-10-thia-5,8-diaza-benzo[a]azulen-9-one] | 2.7 µM |
| COc1ccc2sc3c(c2c1)NC[C@@H](CN(C)Cc1ccccc1)NC3=O [(S)-7-[(Benzyl-methyl-amino)-methyl]-3-methoxy-5,6,7,8-tetrahydro-10-thia-5,8-diaza-benzo[a]azulen-9-one] | 3.17 µM |

The remaining compounds from weak to strong by IC50, led by results:

| IC50 | SMILES |
| --- | --- |
| 3.1 µM | CCNC[C@@H]1CNc2c(sc3ccc(OC)cc23)C(=O)N1 [(R)-7-Ethylaminomethyl-3-methoxy-5,6,7,8-tetrahydro-10-thia-5,8-diaza-benzo[a]azulen-9-one] |
| 0.15 µM | COc1ccc2sc3c(c2c1)SCCNC3=O |
| 0.146 µM | COc1ccc2sc3c(c2c1)NC[C@@H](CN)NC3=O [(R)-7-Aminomethyl-3-methoxy-5,6,7,8-tetrahydro-10-thia-5,8-diaza-benzo[a]azulen-9-one] |
| 0.081 µM | COCCOc1ccc2sc3c(c2c1)NC[C@@H](C)NC3=O [(R)-3-(2-Methoxy-ethoxy)-7-methyl-5,6,7,8-tetrahydro-10-thia-5,8-diaza-benzo[a]azulen-9-one] |
| 0.064 µM | COc1cccc(COc2ccc3sc4c(c3c2)NC[C@@H](C)NC4=O)c1 [(R)-3-(3-Methoxy-benzyloxy)-7-methyl-5,6,7,8-tetrahydro-10-thia-5,8-diaza-benzo[a]azulen-9-one] |
| 0.025 µM | COc1ccc2sc3c(c2c1)NC[C@@H](CO)NC3=O [(S)-7-Hydroxymethyl-3-methoxy-5,6,7,8-tetrahydro-10-thia-5,8-diaza-benzo[a]azulen-9-one] |
